Data set [1] is described as follows: Drug (paclitaxel) loading into NLPs, quantified by reverse phase HPLC after SEC purification. Type of data set: physicochemical. The following applies: for amount of paclitaxel loaded into NLPs (mass of drug over total mass of particle components): NLPs prepared with the named lysophospholipid at 50 mol % content. As for the experimental part: For NLP assemblies using DOPC as the membrane forming lipid with apoE422k, the total lipid-to-apoE422K molar ratio was 80:1. Briefly, lipids were either prepared or obtained in chloroform and aliquoted into glass vials. Chloroform was then removed using a stream of N2 under agitation to form a thin lipid film. Lipids were solubilized in PBS buffer (137 mM sodium chloride, 2.7 mM potassium chloride, 10 mM phosphate buffer, pH 7.4) using 30 mM sodium cholate. After addition of the apoE422k (150 μM in final assembly volume), samples were incubated at 23.8° C. for at least 2 hours.
Assemblies were dialyzed overnight against PBS to remove cholate. Samples were subsequently analyzed and purified by SEC (size exclusion chromatography) (Superdex 200, 10/300 GL column, GE Healthcare, Piscataway, N.J.) in PBS buffer (0.5 mL/min flow rate). The exclusion limit of the column was determined with Blue Dextran 2000. SEC fractions (500 μl) were collected every 60 s. SEC fractions containing homogeneous NLP populations were concentrated using 50 kDa MWCO spin concentrators (Sartorius). The apoE422k concentration was determined using NanoDrop (Thermo Scientific). The concentrated NLP samples were then stored at 4° C. until further use.
The solution was then spun down to remove any precipitate, and then the supernatant was purified by SEC (GE HiTrap desalting column) in PBS buffer (0.5 ml/min flow rate). The collected fractions containing NLP were then analyzed by reverse phase HPLC to quantify each component of the NLP.
The ability of the two NLP populations to accommodate the drug of interest, paclitaxel, was then assessed. Following addition of paclitaxel to the two solutions, the NLP solutions were re-purified to remove free paclitaxel. The solutions were then analyzed by reverse phase HPLC to assess the amount of paclitaxel that was incorporated into the particles.
Further experiments were carried out to assess the relationship between lysophospholipid content and paclitaxel loading. NLPs were prepared with initial lysophospholipid contents (lyso 14:0) between 0 and 70 mole percent (i.e. 0 mol %-70 mol %). After paclitaxel addition and subsequent purification, the composition of these particles was again analyzed using reverse phase HPLC.

For data set [2] the following is noted: pH 5, 7 or 9; cited from earlier work.
The conditions of data set [3]: compared with lyso 14:0, 16:0 and 18:0; cited from earlier work.

SMILES strings stand for the structures. Counter-ions that a name gives are not always drawn.

As for `COc1cccc2c1C(=O)c1c(O)c3c(c(O)c1C2=O)C[C@@](O)(C(=O)CO)C[C@@H]3O[C@H]1C[C@H](N)[C@H](O)[C@H](C)O1` [doxorubicin hydrochloride], the “incorporation in NLPs” value in data set [1] (regardless of whether a lysophospholipid is used as part of the drug loading process) was “does not incorporate to a useful degree”. For the same compound, the LogKow in data set [2] is listed as 3.5.

In the case of `CCCCCCCCCCCCCC(=O)OC[C@@H](O)COP(=O)([O-])OCC[N+](C)(C)C` [lyso 14:0, 1-tetradecanoyl-sn-glycero-3-phosphocholine], the “amount of paclitaxel loaded into NLPs (mass of drug over total mass of particle components)” value in data set [1] is “over 20%”.

Regarding `CCCCCCCC/C=C\CCCCCCCC(=O)OC[C@@H](O)COP(=O)([O-])OCC[N+](C)(C)C` [lyso 18:1, 1-(9Z-octadecenoyl)-sn-glycero-3-phosphocholine], the “aqueous solubility / CMC (in words)” value in data set [3] is “lowest solubility”. Besides, in data set [1], the “amount of paclitaxel loaded into NLPs (mass of drug over total mass of particle components)” value is on record as “least amount”.

For `CC(=O)O[C@H]1C(=O)[C@@]2(C)[C@H]([C@H](OC(=O)c3ccccc3)[C@]3(O)C[C@H](OC(=O)[C@H](O)[C@@H](NC(=O)c4ccccc4)c4ccccc4)C(C)=C1C3(C)C)[C@]1(OC(C)=O)CO[C@@H]1C[C@@H]2O` [paclitaxel], the “paclitaxel content in NLPs (mass of drug over total mass of particle components)” value in data set [1] (10-20 mol % initial lysophospholipid (lyso 14:0)) is “approximately 5 % by mass”; in data set [1] (NLPs without lysophospholipids (0 mol % lyso 14:0), DOPC/apoE422k) it was 1-2 % by mass of the particle. For the same compound, the “paclitaxel loading in NLPs (mass of drug over total mass of particle components)” value is listed as 10-20% in data set [1] (30-60 mol % initial lysophospholipid (lyso 14:0)) and above 30 % by mass in data set [1] (70 mol % initial lysophospholipid (lyso 14:0)). The “measured quantity of paclitaxel in NLPs” value in data set [1] (30 mol % lysophospholipid group) and in data set [1] (70 mol % lysophospholipid group) was “about 0.23 micrograms” each time. For the same compound, the “paclitaxel accepted by NLPs from second SEC peak versus larger particles from peak 1” value in data set [1] (NLPs with 40 mol % initial lysophospholipid (lyso 14:0), two SEC populations) is “substantially more”. For the same compound, the “incorporation into NLP” value in data set [1] (when aided by lysophospholipid) was “capable of being incorporated into NLP to a useful mass percent”.

The values are drawn from patent US20190307692A1, “NANOLIPOPROTEIN PARTICLES AND RELATED COMPOSITIONS METHODS AND SYSTEMS FOR IMPROVED DRUG LOADING” (Lawrence Livermore National Security, LLC, priority 2016, published 2019).
